{
  "source": "patent US11801242B2",
  "about": "“Compositions and methods for adjuvant cancer therapeutics” (DUKE UNIVERSITY, priority 2018, dated 2023)",
  "key": {"HT1080 cells [1]": {"test_system": "HT1080 cells", "test": "HPRT mutagenesis assay", "format": "cell-based, human", "settings": "RE01 1.5 μM, cisplatin 0.5 μM", "protocol": "For the hypoxanthine-guanine phosphoribosyl transferase (HPRT) mutagenesis assay, cells were first grown in HAT (complete media with 100 μM Hypoxanthine, 0.4 μM Aminopterin and 16 μM Thymidine) media (ThermoFisher) for 14 days to weed out any spontaneous HPRT mutants. After HAT selection, cells were exposed to cisplatin at the 0.5 μM concentration for 24 hours. Then, in fresh media, RE01 at a concentration of 1.5 μM was added to cells. After 24 hours of drug treatment, cells were trypsinized and washed with PBS. While 200-600 cells were plated in complete media in triplicates in 6-well plates to determine clonal efficiency, the rest of the cells were plated in complete media to allow the expression of the phenotype for 8 days. Then, 500,000 cells per treatment were plated in sextuplicate in 10 cm dishes in 6-TG media to allow the proliferation of mutated HPRT^− cells. Colonies were fixed (50% methanol and 10% glacial acetic acid), stained (0.02% Coomassie brilliant blue R-250 stain in methanol: acetic acid: water in a ratio of 46.5:7:46.5 (v/v/v)), and counted after 14-20 days. The HPRT mutation frequency was calculated as the ratio of the number of HPRT^− colonies in 6-TG media to the number of surviving colonies plated in complete media to determine clonal efficiency."}, "HT1080 cells [2]": {"test_system": "HT1080 cells", "test": "Gapped plasmid TLS assay, cisplatin 1,2-GG lesion", "format": "cell-based, human", "settings": "pre-treatment with RE01 1.5, 3.0 and 15.0 μM for 24 hours", "description": "The double stranded plasmid pUC19 with ampicillin resistance was modified to include the oligonucleotide containing cisplatin 1,2-GG lesion on one strand and a gapped region across it. Briefly, the 16mer cisplatin-containing oligonucleotide was flanked by two 21mer regular DNA strands (5′-[…]-3′ (SEQ ID NO: 2) on the 5′ end and 5′-[…]-3′ (SEQ ID NO: 3) on the 3′ end) and elongated to a 58mer lesion-containing single strand DNA. After linearizing the plasmid by restriction endonucleases BstAPI and BspQI (New England Biolabs), the 58mer oligonucleotide was mixed with two scaffolds (5′-TGCATGCGCGCTACGACG-3′ (SEQ ID NO: 4) and 5′-[…]-3′ (SEQ ID NO: 5)) and ligated with the linear pUC19 plasmid to build up a circular plasmid containing a site-specific cisplatin 1,2-GG lesion and a 16-nucleotide gap on the opposite strand.\nA competitor gapped plasmid that was three bases longer (started from a 19mer oligonucleotide 5′-CTCTCTAGGCTCACTTCTA-3′ (SEQ ID NO: 6)) than the lesion-containing plasmid was used as the internal control. The cells were pre-treated with either DMSO or RE01 (1.5, 3.0 and 15.0 μM) for 24 hours. […] The gap-filling efficiency by TLS was calculated by dividing the output ratio obtained from HPLC-MS with the input ratio (4:1) and the results were normalized to 100%."}, "A375 cells [3]": {"test_system": "A375 cells", "test": "Clonogenic survival after siRNA knock-down of REV1", "format": "cell-based, human", "settings": "RE01 1.5 μM, cisplatin 1 μM", "protocol": "(§1) 300 cells were plated in triplicate in 6-well plates for 24 hours. Cisplatin (cis-diammineplatinum(II) dichloride, Sigma-Aldrich) was added to relevant wells for 24 hours. All plates were incubated at 37° C. for 24 hours. Media were changed the next day and in fresh media RE01 (at 1.5 μM concentration) was added to untreated or cisplatin-treated cells for another 24 hours. Media were changed at the end of these combination treatments, and cells were allowed to recover for 7 days. To stain the resulting colonies, media were aspirated and the fixative (50% methanol and 10% glacial acetic acid) was added for 10 minutes, followed by the addition of 0.02% Coomassie brilliant blue R-250 stain (ThermoFisher) in methanol: acetic acid: water in a ratio of 46.5:7:46.5 (v/v/v). Colonies that stained blue and contained at least 40 cells were counted. Relative cell survival or colony formation was calculated by dividing colony counts from treated samples by the DMSO or untreated controls.\n(§2) REV1 was knocked down by transiently transfecting SMARTpool: ON-TARGETplus REV1 siRNA by nucleofection. The siRNA was mixed with the nucleofection buffer Mouse/Rat Hepatocyte Nucleofector™ Kit (Lonza) and electroporated using the Nucleofector™ 2b device. Full-length mouse Rev1 on the pC3 plasmid (Clontech) was nucleofected using the same buffers and device into Rev1^−/− cells to complement the REV1 function."}, "HT1080 cells [4]": {"test_system": "HT1080 cells", "test": "Clonogenic survival after siRNA knock-down of REV1", "format": "cell-based, human", "settings": "RE01 1.5 μM, cisplatin 1 μM", "protocol": "as §1, §2"}, "A375 cells [5]": {"test_system": "A375 cells", "test": "qRT-PCR of p21 mRNA", "format": "cell-based, human", "settings": "combination RE01 1.5 μM and cisplatin 1 μM", "protocol": "Total RNA was isolated by using the RNeasy Mini kit (Qiagen) from cells treated with RE01 (1.5 μM), cisplatin (1 μM) and a combination of both RE01 (1.5 μM) and cisplatin (1 μM). 5 ng of RNA from each sample was mixed with 10 μl of Applied Biosystems™ PowerUp™ SYBR™ Green Master Mix (ThermoFisher), 1 μl of MultiScribe™ Reverse Transcriptase (ThermoFisher), 0.1 μl of RNaseOUT™ Recombinant Ribonuclease Inhibitor and 5.9 μl of RNase-free water, and run in a one-step qRT-PCR reaction. Each reaction was run in triplicate. Primers used were: p21 F 5′-[…]-3′ (SEQ ID NO: 9), p21 R 5-CGGCGTTTGGAGTGG TAGAAA-3′ (SEQ ID NO: 10); GAPDH F 5′-[…]-3′ (SEQ ID NO: 11), GAPDH R 5′-[…]-3′ (SEQ ID NO: 12)."}, "Rev1^+/+ MEF cells": {"test_system": "Rev1^+/+ MEF cells", "test": "Clonogenic survival assay", "format": "cell-based, mouse", "settings": "RE01 1.5 μM + cisplatin 0.5 μM vs cisplatin alone", "protocol": "as §1"}},
  "data": [
    {"smiles": "CC(C)CC(=O)c1c(Nc2ccc(Cl)cc2Cl)[nH]c2c(Cl)ccc([N+](=O)[O-])c2c1=O", "note": "[RE01, 8-chloro-2-((2,4-dichlorophenyl)amino)-3-(3-methylbutanoyl)-5-nitroquinolin-4(1H)-one]", "values": [
      {"measurement": "frequency of spontaneous and cisplatin-induced HPRT mutations", "setting": "HT1080 cells [1]", "result": "decreased"},
      {"measurement": "bypass efficiency of 1,2-GG cisplatin DNA adduct", "setting": "HT1080 cells [2]", "result": "suppresses"},
      {"measurement": "RE01 mediated sensitization to cisplatin", "setting": "A375 cells [3]", "result": "abolished"},
      {"measurement": "RE01 mediated sensitization to cisplatin", "setting": "HT1080 cells [4]", "result": "abolished"},
      {"measurement": "levels of the p21 biomarker", "setting": "A375 cells [5]", "result": "elevated levels"},
      {"measurement": "colony forming ability", "setting": "Rev1^+/+ MEF cells", "result": "significantly reduced"}
    ]}
  ]
}
